Columns and labels:
Type in all cases: in vivo
Rhagoletis cerasi = experiment: Example 21: cherry trees against Rhagoletis cerasi; conditions: 23 d after treatment 2, larvae on fruits, Dimethoate (400 EC) 200, (I-4) (150 OD) 75 g a.s./ha/m crown level
Protocol: Cherry trees cv. “Van” which are approximately 26 years old are treated, in three replications, against Rhagoletis cerasi. The application is carried out with an atomizer. Here, the active substance Example (I-4) (150 OD) and the commercial standard dimethoate (400 EC) are applied at the specified application rates. Two applications are carried out at an interval of 6 days with a water application rate of 500 l/ha/m crown level.
The test is evaluated 23 days after treatment 2 by scoring the destruction rates of the animals (larvae) on the fruits with the aid of the Abbott formula.

Dacus ciliatus = experiment: Example 22A: bottle gourds against Dacus ciliatus
Protocol: Plots approx. 10 m^2 in size which are planted with bottle gourds cv. “Waltham” are treated, in three replications, against Dacus ciliatus. The application is carried out with a motor-operated knapsack sprayer. Here, the active substance Example (I-4) (150 OD) and the commercial standard Fenthion (500 EC) are tested at the specified application rates. Three applications are carried out at in each case an interval of 7 days. The water application rate is approx. 500 l/ha.
The test is evaluated 8, 14 and 21 days after treatment 1 by scoring the infestation of the fruits.

Caliothrips phaseoli = experiment: Example 3: courgettes against Caliothrips phaseoli; conditions: 8 d after treatment, nymphs on 5 leaves, Endosulfan (350 EC) 525, (I-4) (240 SC + 0.1% rapeseed oil methyl ester) 72 g a.s./ha
Protocol: Plots approx. 22 m^2 in size which are planted with courgettes cv. “Italiana negra” are treated, in three replications, against Caliothrips phaseoli. The application is effected with a motor-driven knapsack sprayer. Here, the active substance Example (I-4) (240 SC), in a tank mix together with 0.1% a.s. rapeseed oil methyl ester (500 EW) and the commercial standard endosulfan (350 EC), is tested at the specified application rates. The water application rate is approx. 510 l/ha.
The test is evaluated 8 days after the treatment by scoring the destruction of the animals (nymphs) on 5 leaves.

Lema melanopa = experiment: Example 25: winter wheat against Lema melanopa; conditions: 3 days after the last of two treatments (interval 7 days), larvae, Calypso (240 OD) 72, (I-4) (240 SC + 0.2% rapeseed oil methyl ester) 96 g a.s./ha
Protocol: Plots approx. 25 m^2 in size which are planted with winter wheat cv. “Capfem” are treated, in four replications, against Lema melanopa. The application is carried out with a knapsack sprayer which is operated with pressurized air. Here, the active substance Example (I-4) (240 SC), in a tank mix together with 0.2% a.s. rapeseed oil methyl ester (500 EW) and the commercial standard Calypso (240 OD), is applied at the specified application rates. Two applications are carried out at an interval of 7 days, with a water application rate of 350 l/ha.
The test is evaluated 3 days after the last treatment by scoring the destruction rate of the larvae on the plants.

CCOC(=O)OC1=C(c2cc(C)ccc2C)C(=O)N[C@]12CC[C@@H](OC)CC2 [Example (I-4)]
Efficacy (% Abbott) 23 d (Rhagoletis cerasi): 100 % Abbott | Efficacy (% Abbott) 8 d (Dacus ciliatus; 8 d after treatment 1, infestation of fruits, Fenthion (500 EC) 300, (I-4) (150 OD) 200 g a.s./ha, three applications, 7-day intervals): 59.5 % Abbott | Efficacy (% Abbott) 14 d (Dacus ciliatus; 14 d after treatment 1, Fenthion 300, (I-4) 200 g a.s./ha): 48.9 % Abbott | Efficacy (% Abbott) 21 d (Dacus ciliatus; 21 d after treatment 1, Fenthion 300, (I-4) 200 g a.s./ha): 44.5 % Abbott | Efficacy (% Abbott) 8 d (Caliothrips phaseoli): 71.3 % Abbott | Efficacy (% Abbott) 10 d (Lema melanopa): 82.1 % Abbott
